Converted amounts (≈) assume the structure as drawn. Where two headings read alike, the source gives them in different places. Square brackets hold non-standard residues; d marks the D form. Peptide text beside a SMILES is read from it.
Experiments:
[1] = XTT proliferation (cytotoxicity) assay, normal fibroblasts; format: cell-based, mouse; conditions: mouse, NIH-3T3 normal mouse fibroblasts, read-out: Lethal Concentration (LC50)
Method: (§1) The CL1 human prostate carcinoma (PC) cell line is an androgen-independent (AI) subclone of LNCaP cell line, which was generated by culturing androgen-dependent (AD) LNCaP cells in charcoal-stripped, […], as described (Patel et al. 2000). 22RV1 human PC cells are AI sub-clones of the AD prostatic adenocarcinoma CWR22 xenograft (Sramkoski et al. 1999). CL1 and 22RV1 (ATCC, USA) were grown in RPMI-1640 supplemented with 10% FCS (Biological Industries, Beit Haemek, Israel). PC3 and DU145 are androgen-insensitive (AI) (non-responsive), invasive human prostate cancer cell lines. NIH-3T3 mouse fibroblast cell lines (ATCC, USA) were grown in DMEM supplemented with 10% BS. Murine Lewis lung carcinoma (LLC) cell lines were also grown in DMEM medium supplemented with 10% fetal calf serum and antibiotics under the same conditions as above.
(§2) The anticancer activity of the diastereomers 1, 5 and 11-16, 36-39, 42 and 44 was examined against human CL1 prostate cancer, murine LLC (Lewis lung carcinoma), DU 145 and PC3 cell lines. The cell selectivity of the diastereomeric peptides was also studied by examining their effect on NIH-3T3 normal mouse fibroblasts cell line.
(§3) A 96-well plate (Falcon) was used for the XTT proliferation assay. Cancer cells were grown for 24 hours (day 1) in RPMI-1640 medium ([…] cells/100 μl for LLC, CL1, 22RVI, DU 145 and PC3, respectively) supplemented with 10% fetal calf serum and antibiotics, at 37° C., in humidified atmosphere at 5% CO2 and 95% air, resulting in growth medium pH of 7.4. NIH-3T3 fibroblast cells (1×10^4 cells/100 μl) were grown in DMEM medium supplemented with 10% bovine calf serum and antibiotics under the same conditions as described above for the cancerous cells. Wells in the last two rows served as blanks (medium only, for measuring the background color of the medium) and 100% survival controls (cells and medium only without treatment), respectively.
(§4) In day 2, the peptides were dissolved in sterile PBS to a concentration of 200 μM (or 500 μM). The medium in the assay wells was replaced with 100 μl serum free medium. For the assays at pH 6, the medium was initially concentrated (×5 or ×10) and then diluted with double distilled water and addition of sodium carbonate. Before reaching the correct dilution, the medium was adjusted to pH 6 and then more water was added to reach the final dilution. The cells were grown in physiological pH, and the acidic pH was used only during the 24 hours incubation with the peptides. A sign for the correct acidity was a light yellow color of the medium. In line A of the plate, 160 μl of serum free medium was added, if the initial peptide concentration was 500 μM.
(§5) Peptide solutions, 100 μl (or 40 μl) were added to each assay well in line A, such that the final concentration of the peptide was […] and the volume 200 μl. The medium in the wells was mixed with multichannel pipette 5 times and 100 μl of it were transferred to the next row of wells (line B), to give a peptide concentration of 50 μM. The double dilution of the peptides continued downstream the plate in the same manner. The plates were then incubated for 24 h.
(§6) In day 3, XTT reaction solution was prepared by adding to 100 μl aliquots of activation solution (sodium 3′-[1-(phenyl-aminocarbonyl)-3,4-tetrazolium]-bis(4-methoxy-6-nitro) benzene sulfonic acid hydrate and N-methyl dibenzopyrazine methyl sulfate; mixed in a proportion of 50:1) (protected from light and kept in −20° C.), the substrate. 50 μl of XTT reaction solution were added to each well and the plates were incubated for 2 hours (37° C. and 5% CO2+95% air. In cases the incubation was not enough for the creation of the color, it was extended for up to 24 hours). The optical density was read at wavelength of 450 nm in an ELISA plate reader. Cell viability was determined relative to the control and final results were recorded. The results were confirmed using replications in at least three independent experiments. […]

[2] = test system: CL1 human prostate carcinoma cell line; experiment: XTT proliferation (cytotoxicity) assay, CL1; format: cell-based
Method: as §1, §2, §3, §4, §5, §6

[3] = test system: AI CL1 human PC cells xenograft; experiment: Inhibition of tumor growth in human prostate cancer xenografts, CL1; format: in vivo, nude male mice
Method: (i) Inhibition of tumor growth in human prostate cancer xenografts. Subcutaneouse (s.c.) implantation of human PC cells in mice was done as previously described in Gavish et al. (Gavish et al. 2002). Briefly, 0.1 ml AI CL1 or 22RV1 human PC cells (5×10^6 cells) in Matrigel were inoculated s.c. into the dorsal side of five to six week-old nude male mice weighing 20-25 g (Harlen Co., Israel). Two weeks after cell implantation, when the tumors diameter reached ≧5 mm (denoted as day 1), the diastereomer 13 and its all L-amino acid analog peptide (at 1 mg/kg, 0.1 mM), or vehicle (PBS, pH=7.4) were injected intratumorally (dosing volume of 2.5 ml/kg) three times a week for a total of 9 doses. Tumor size was measured by a caliper and recorded twice a week during a period of 28 days. Mice were weighed and tumor weight (mg) was estimated by using the formula of length×width×depth×0.52 in mm^3, assuming the specific gravity to be 1. At the end of the treatment, the mice were killed, and the tumors were removed, photographed, and weighed. The animal experimentation was conducted according to the rules of the Institutional Animal Care and Use Committee.

[4] = test system: 22RV1 prostate tumor lung metastases; experiment: Inhibition of prostate tumor-derived lung metastases formation
Text: During the experiment, the mice were monitored continuously for clinical signs of toxicity.

[5] = test system: pepsin, trypsin, and elastase; experiment: Resistance to proteolytic digestion (reverse-phase HPLC); format: in vitro ADME; conditions: after 2 hr, 140 μM peptide, 25 μM protease, 37° C.
Method: In order to reach their target, the diastereomers have to withstand proteolytic digestion of proteases, which may occur after their administration and during the time until they reach the target site. The susceptibility of the peptides 13 and 14 to proteolytic digestion by pepsin (from porcine stomach mucosa, Sigma), trypsin (from bovine pancreas, Sigma), and elastase (from human leukocytes, Sigma) was assessed by reverse-phase HPLC. As a negative control, the all L-amino acid analog peptides were used. Equal amounts of the peptides were dissolved in PBS (35 mM phosphate buffer/0.15 M NaCl, pH 7.3) at a final concentration of 140 μM, to which 25 μM of protease were added. […] After the addition of the appropriate protease inhibitor to stop the reaction, aliquots were injected to C18 column and the amounts of the intact peptides 13 and 14 and their all L analogs were evaluated using their absorbance at 215 nm.

CC(C)C[C@H](NC(=O)[C@H](CC(C)C)NC(=O)[C@@H](CCCCN)NC(=O)[C@H](CC(C)C)NC(=O)[C@H](CC(C)C)NC(=O)[C@H](Cc1c[nH]cn1)NC(=O)[C@@H](CCCCN)NC(=O)[C@@H](CC(C)C)NC(=O)[C@H](CC(C)C)NC(=O)[C@@H](CCCCN)NC(=O)[C@H](Cc1c[nH]cn1)NC(=O)[C@H](CC(C)C)NC(=O)[C@@H](CC(C)C)NC(=O)[C@H](CCCCN)NC(=O)[C@@H](N)CC(C)C)C(N)=O [Peptide 13] (H-LK[dL]LH[dK]L[dL][dK]HLL[dK]LL-NH2)
CC50 at 24 h ([1]; NIH3T3, pH 6, 24 h): 19 µg/mL (≈ 10.4 µM)
CC50 at 24 h ([1]; NIH3T3, pH 7.4, 24 h): 50 µg/mL (≈ 27.4 µM)
potency compared with diastereomer 1 ([2]; CL1, pH 6.0): similarly or significantly more potent
Lethal Concentration (LC50) ([2]; CL1, pH 6, 24 h): 6.25 µg/mL
Lethal Concentration (LC50) ([2]; CL1, pH 7.4, 24 h): 6.25 µg/mL
tumor weight ([3]; CL1 xenograft, 1 mg/kg intratumorally, 9 doses): significant reduction
body weight of the animals compared with vehicle-treated control group ([3]; prostate cancer xenografts (CL1, 22RV1)): increase
body weight compared with vehicle treated control group ([4]; mouse, in vivo): significant increase
lung metastases ([4]; systemic administration, vs untreated controls): entirely abolished
clinical signs of toxicity (condition of animals) ([4]; throughout the assay period): good condition
proteases digestion [5]: ~50%

From patent US20090305954A1, “HISTIDINE-CONTAINING DIASTEREOMERIC PEPTIDES AND USES THEREOF” (Yeda Research and Development Co. Ltd., priority 2005, published 2009)
